Results as given in patent publication US10308667B2, “Oxadiazolopyridine derivatives for use as ghrelin O-acyl transferase (GOAT) inhibitors” (Boehringer Ingelheim International GmbH, priority 2016, dated 2019).

Each compound was assayed against human GOAT (Homo sapiens (Human), UniProt Q96T53) (assay: Determination of hGOAT Activity in HEK293 Cells after Incubation with Test Compound). Conditions: HEK293 cells stably transfected with preproghrelin and human GOAT; octanoate-BSA 100 μM; acyl-ghrelin in medium by ELISA after 5 hours.
Chain of human GOAT (Q96T53 whole entry): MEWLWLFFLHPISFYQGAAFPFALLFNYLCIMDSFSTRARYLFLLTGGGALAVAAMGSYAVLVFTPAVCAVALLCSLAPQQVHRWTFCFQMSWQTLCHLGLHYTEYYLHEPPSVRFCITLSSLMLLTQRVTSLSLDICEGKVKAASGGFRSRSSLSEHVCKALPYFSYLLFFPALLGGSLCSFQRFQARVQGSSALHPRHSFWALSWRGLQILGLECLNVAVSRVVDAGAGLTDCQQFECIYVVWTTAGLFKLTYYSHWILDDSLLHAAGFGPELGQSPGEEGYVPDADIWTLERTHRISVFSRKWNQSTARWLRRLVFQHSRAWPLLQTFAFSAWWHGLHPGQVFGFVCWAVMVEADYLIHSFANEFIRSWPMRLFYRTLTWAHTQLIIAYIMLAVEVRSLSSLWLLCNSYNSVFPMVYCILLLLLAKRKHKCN
Type: cell-based
Experimental: Determination of hGOAT Activity in HEK293 Cells after Incubation with Test Compound
HEK293 cells stably transfected with two expression vectors, one coding for preproghrelin cDNA and a second for the expression of human GOATcDNA are used as a cellular model. After feeding the cells with octanoic acid for 5 hours, acyl-ghrelin is measured in cell culture medium by an ELISA procedure.
Cellline: Hek293 hGOAT/PPGhrl Clone #1B8Sodium octanoate, Sigma, Cat.-No. C5038
BD Poly-D-Lysin 384-well Plates, black-clear polystyrene BD Bioscience Cat.-No. […] ELISA human acylated Ghrelin Kit purchased from Bertin Pharman (detailed composition of buffers e.g. wash-puffer, ELISA buffer not known)
Cells are plated with a density of 5000 cells/well in 384-well poly-D-lysin plates and incubated for 1 day at 37° C., 5% CO2 in DMEM medium, 10% FCS, 1×NEAA, Puromycin (0.5 μg/ml) and G418 (1 mg/ml). Then the medium is changed to a identical medium without FCS and containing Octanoate-BSA (final concentration 100 μM each) and compound in DMSO (final DMSO concentration 0.3%). After incubation for 5 hours acylghrelin in the medium is measured by ELISA
The medium sample is diluted 1:25 in Elisa buffer, A 25 ul aliquot is transferred to a 384-well ELISA plate previously washed 4 times with 100 μL wash buffer, and 25 μl tracer-solution is added. After incubation overnight (˜20 h) at 4° C. temperature the plate is washed 4 times with 100 μl wash-buffer per well. Finally 50 μl Ellman's reagent is added to each well and the plate is incubated in the dark for 20 minutes. The absorbance is measured at 405 nm in an Envision multilabel reader and the amount of acylated ghrelin is calculated according to a acylated ghrelin standard curve provided in the same plate.
The analysis of the data is performed by calculation of the percentage of acyl-ghrelin produced in the presence of test compound compared to the amount of acyl-ghrelin produced in the vehicle control samples. An inhibitor of the GOAT enzyme will give values between 100% CTL (no inhibition) and 0% CTL (complete inhibition). IC50 values are calculated with Assay Explorer or other suited software based on curve fitting of results of 8 different compound concentrations.

IC50 [nM]	SMILES
0.096	Cc1nc2nonc2c(N)c1Cc1ccc(Br)c(NC2CC(F)(F)C2)n1 [Example 128, 6-[5-Bromo-6-(3,3-difluoro-cyclobutylamino)-pyridin-2-ylmethyl]-5-methyl-[1,2,5]oxadiazolo[3,4-b]pyridin-7-ylamine]
0.11	Cc1nc2nonc2c(N)c1Cc1ccc(C#N)c(OCCF)n1 [Example 106, 6-(7-Amino-5-methyl-[1,2,5]oxadiazolo[3,4-b]pyridin-6-ylmethyl)-2-(2-fluoro-ethoxy)-nicotinonitrile]
7.4	Cc1nc2nonc2c(N)c1Cc1cccc(C#N)n1 [Example 164, 6-(7-Amino-5-methyl-[1,2,5]oxadiazolo[3,4-b]pyridin-6-ylmethyl)-pyridine-2-carbonitrile]
2.6	Cc1nc2nonc2c(N)c1Cc1cc(Cl)cc(C#N)n1 [Example 38, 6-(7-amino-5-methyl-[1,2,5]oxadiazolo[3,4-b]pyridin-6-ylmethyl)-4-chloropyridine-2-carbonitrile]
1.8	Cc1nc2nonc2c(N)c1Cc1ccc(N2CC(F)(F)C2)c(C#N)n1 [Example 151, 6-(7-Amino-5-methyl-[1,2,5]oxadiazolo[3,4-b]pyridin-6-ylmethyl)-3-(3,3-difluoro-azetidin-1-yl)-pyridine-2-carbonitrile]
0.2	Cc1nc2nonc2c(N)c1Cc1ccc(C#N)c(NCC2(C)COC2)n1 [Example 135, 6-(7-Amino-5-methyl-[1,2,5]oxadiazolo[3,4-b]pyridin-6-ylmethyl)-2-[(3-methyl-oxetan-3-ylmethyl)-amino]-nicotinonitrile]
0.046	Cc1nc2nonc2c(N)c1Cc1ccc(C#N)c(N2CCC(F)(F)C2)n1 [Example 143, 6-(7-Amino-5-methyl-[1,2,5]oxadiazolo[3,4-b]pyridin-6-ylmethyl)-2-(3,3-difluoro-pyrrolidin-1-yl)-nicotinonitrile]
0.02	Cc1nc2nonc2c(N)c1Cc1ccc(C#N)c(NC2CC2)n1 [Example 139, 6-(7-Amino-5-methyl-[1,2,5]oxadiazolo[3,4-b]pyridin-6-ylmethyl)-2-cyclopropylamino-nicotinonitrile]
0.074	CSc1nc(Cc2c(C)nc3nonc3c2N)ccc1Br [Example 102, 6-(5-Bromo-6-methylsulfanyl-pyridin-2-ylmethyl)-5-methyl-[1,2,5]oxadiazolo[3,4-b]pyridin-7-ylamine]
0.3	Cc1nc2nonc2c(N)c1Cc1ccc(OC(F)(F)F)c(C#N)n1 [Example 33, 6-(7-Amino-5-methyl-[1,2,5]oxadiazolo[3,4-b]pyridin-6-ylmethyl)-3-trifluoromethoxy-pyridine-2-carbonitrile]
0.075	Cc1nc2nonc2c(N)c1Cc1ccc(C#N)c(N2CC(C)(O)C2)n1 [Example 138, 6-(7-Amino-5-methyl-[1,2,5]oxadiazolo[3,4-b]pyridin-6-ylmethyl)-2-(3-hydroxy-3-methyl-azetidin-1-yl)-nicotinonitrile]

Continued, compound first:

SMILES	IC50 [nM]
Cc1nc2nonc2c(N)c1Cc1ccc(-n2cccn2)c(C#N)n1 [Example 157, 6-(7-Amino-5-methyl-[1,2,5]oxadiazolo[3,4-b]pyridin-6-ylmethyl)-3-pyrazol-1-yl-pyridine-2-carbonitrile]	0.26
Cc1nc2nonc2c(N)c1Cc1ccc(Br)c(OCC2(C)COC2)n1 [Example 95, 6-[5-Bromo-6-(3-methyl-oxetan-3-ylmethoxy)-pyridin-2-ylmethyl]-5-methyl-[1,2,5]oxadiazolo[3,4-b]pyridin-7-ylamine]	0.082
COc1nc(Cc2c(C)nc3nonc3c2N)ccc1Br [Example 97, 6-(5-Bromo-6-methoxy-pyridin-2-ylmethyl)-5-methyl-[1,2,5]oxadiazolo[3,4-b]pyridin-7-ylamine]	0.022
Cc1nc2nonc2c(N)c1Cc1cc(C#N)ccn1 [Example 28, 2-(7-Amino-5-methyl-[1,2,5]oxadiazolo[3,4-b]pyridin-6-ylmethyl)-isonicotinonitrile]	48
Cc1nc2nonc2c(N)c1Cc1ccc(OC(F)F)c(Br)n1 [Example 15, 6-(6-Bromo-5-difluoromethoxy-pyridin-2-ylmethyl)-5-methyl-[1,2,5]oxadiazolo[3,4-b]pyridin-7-ylamine]	0.038
Cc1nc2nonc2c(N)c1Cc1nc(C#N)cc(C(F)F)n1 [Example 165, 2-(7-amino-5-methyl-[1,2,5]oxadiazolo[3,4-b]pyridin-6-ylmethyl)-6-(difluoromethyl)pyrimidine-4-carbonitrile]	14
Cc1nc2nonc2c(N)c1Cc1ccc(S(C)(=O)=O)c(O)n1 [Example 159, 6-(7-Amino-5-methyl-[1,2,5]oxadiazolo[3,4-b]pyridin-6-ylmethyl)-3-methanesulfonyl-pyridin-2-ol]	15
Cc1nc2nonc2c(N)c1Cc1cccc(-c2cn(C)nc2C(F)(F)F)n1 [Example 61, 5-Methyl-6-[6-(1-methyl-3-trifluoromethyl-1H-pyrazol-4-yl)-pyridin-2-ylmethyl]-[1,2,5]oxadiazolo[3,4-b]pyridin-7-ylamine]	0.29
Cc1nc2nonc2c(N)c1Cc1ccc(Br)c(NCC(C)(C)C(N)=O)n1 [Example 124, 3-[6-(7-Amino-5-methyl-[1,2,5]oxadiazolo[3,4-b]pyridin-6-ylmethyl)-3-bromo-pyridin-2-ylamino]-2,2-di methyl-propionamide]	0.056
CSc1ccc(Cc2c(C)nc3nonc3c2N)nc1 [Example 44, 5-Methyl-6-(5-methylsulfanyl-pyridin-2-ylmethyl)-[1,2,5]oxadiazolo[3,4-b]pyridin-7-ylamine]	0.17
COC(=O)Cc1ccc(Cc2c(C)nc3nonc3c2N)nc1 [Example 10, [6-(7-Amino-5-methyl-[1,2,5]oxadiazolo[3,4-b]pyridin-6-ylmethyl)-pyridin-3-yl]-acetic Acid Methyl Ester]	13
Cc1nc2nonc2c(N)c1Cc1ccc(Br)c(S(C)(=O)=O)n1 [Example 161, 6-(5-Bromo-6-methanesulfonyl-pyridin-2-ylmethyl)-5-methyl-[1,2,5]oxadiazolo[3,4-b]pyridin-7-ylamine]	0.89
Cc1nc2nonc2c(N)c1Cc1ccc(Br)c(OCC(C)(F)F)n1 [Example 99, 6-[5-Bromo-6-(2,2-difluoro-propoxy)-pyridin-2-ylmethyl]-5-methyl-[1,2,5]oxadiazolo[3,4-b]pyridin-7-ylamine]	0.072
Cc1nc2nonc2c(N)c1Cc1ncc(C#N)c(C2CCOC2)n1 (stereo not shown) [Example 80, 2-(7-amino-5-methyl-[1,2,5]oxadiazolo[3,4-b]pyridin-6-ylmethyl)-4-(oxolan-3-yl)pyrimidine-5-carbonitrile]	3.8
Cc1nc2nonc2c(N)c1Cc1cccc(-c2ccco2)n1 [Example 57, 6-(6-Furan-2-yl-pyridin-2-ylmethyl)-5-methyl-[1,2,5]oxadiazolo[3,4-b]pyridin-7-ylamine]	0.1
Cc1nc2nonc2c(N)c1Cc1cc(Cl)c(C(F)(F)F)cn1 [Example 20, 6-(4-Chloro-5-trifluoromethyl-pyridin-2-ylmethyl)-5-methyl-[1,2,5]oxadiazolo[3,4-b]pyridin-7-ylamine]	0.17
Cc1nc(Cc2c(C)nc3nonc3c2N)ncc1C#N [Example 81, 2-(7-amino-5-methyl-[1,2,5]oxadiazolo[3,4-b]pyridin-6-ylmethyl)-4-methylpyrimidine-5-carbonitrile]	7
